{"source": "patent US10563272B2", "about": "“Compositions comprising Metarhizium fungi and use thereof as a pesticide” (Cotton Research and Development Corporation, priority 2015, dated 2020)", "key": {"predatory beetles [1]": {"tested_on": "predatory beetles", "experiment": "Bollgard II cotton, Auscott-Togo 2012-13, Field 63 (Experiment 2): predatory beetles", "type": "in vivo, Coleoptera (Coccinellidae, Melyridae)", "conditions": "62.5 mL/ha", "method": "(§1) Two separate trials (Experiment 1 in Field 77; Experiment 2 in Field 63) were conducted in Bollgard II cotton crops on a commercial cotton farm at Auscott-Togo near Narrabri, New South Wales from 11 Feb. to 5 Mar. 2013 (Field 77) and 19 Feb. to 6 Mar. 2013 (Field 63). The cotton used for each of the trials was at the late squaring to pod setting and maturation stages which was fairly attractive to green mirids.\n(§2) In both trials, the efficacy of the following treatments against green mirids and predatory insects was evaluated: • 1. 250 mL/ha DAT 511 spore in oil (1×10^7 spores/ml); • 2. 500 mL/ha DAT 511 spore in oil (1×10^7 spores/ml); • 3. 1 L/ha DAT 511 spore in oil (1×10^7 spores/ml); • 4. 62.5 mL/ha of fipronil; and • 5. Unsprayed (negative control).\n(§3) The treatment plots were arranged in a randomized complete block design with six replicates per treatment. Each replicated plot measured 40 m wide (40 rows) and 90 m long.\n(§4) Foliar application of each treatment was made on 28 Feb. (for both green mirids and beneficial insects) and 13 Mar. 2012 (for beneficial insects alone) using a ground spray rig fitted with flat fan nozzles to achieve a droplet size of 200 μm. The treatment was applied during the mornings when temperatures were between 20° C. and 28° C. The timing of treatment was based on the IPM Guidelines and recommendations by CottonLogic to use an economic threshold of 0.5 green mirids per metre (Deutscher and Wilson 1999; Khan et al. 2004).\n(§5) Pre-treatment counts of green mirid adults and nymphs, predatory beetles, predatory bugs, predatory lacewings and spiders were made by visual inspection of whole cotton plants. Both adults and nymphs of beneficial insects were counted. Plants were assessed in randomly selected one-metre lengths of row of each replicate (i.e. 6 m per treatment). Post-treatment counts were made 3, 7, 14 and 21 days after treatment. Data are expressed as numbers of green mirid adults and nymphs counted per metre for each treatment."}, "[2]": {"tested_on": "green vegetable bugs (GVB)", "experiment": "Rate trial on conventional cotton refuge crops, Undabri 2012 (Example 12): green vegetable bugs", "type": "in vivo, Nezara viridula", "conditions": "14 DAT (P<0.01) and 21 DAT (P<0.05); DAT 511 500 mL/ha and 1 L/ha, fipronil", "method": "(§6) This trial was conducted using commercial conventional cotton refuge crops at Undabri in Goondiwindi (28° 55'S, 150° 31′E) from 14 Feb. to 6 Mar. 2012.\nas §2, with “The” for “In both trials, the”, “mirids, green vegetable bugs” for “mirids”, “assessed:” for “evaluated:”, “mL/ha” for “mL/ha of”\n(§7) The plots were arranged in a randomized complete block design with three replicates per treatment. Each replicated plot measured 8 m (8 rows) wide and 250 m long.\n(§8) Foliar applications of each treatment were made on 14 Feb. 2012 using a ground spray rig fitted with flat fan nozzles to achieve a droplet size of 200 μm. All insecticide formulations were water miscible. All treatments were applied using a spray volume of 100 L/ha. The untreated (negative control) plot was left unsprayed and the plot treated with synthetic insecticide received two applications similar to, and on the same date as, the plots treated with the fungus.\n(§9) For each replicate, visual counts of adults and nymphs of green mirids, green vegetable bugs (GVB), apple dimpling bugs and predatory insects on whole cotton plants were made in a randomly selected 1 m length of row of cotton plants (i.e. 6 m per treatment). […]"}, "lacewings": {"tested_on": "lacewings", "experiment": "Rate trial on conventional cotton, Norwood 2012 (Example 10): lacewings", "type": "in vivo, Chrysopa spp., Micromus tasmaniae", "conditions": "P>0.05", "method": "(§10) This trial was conducted on commercial conventional cotton crops on a farm at Norwood (29° 28'S, 149° 50′E) near Moree, NSW, from 28 Feb. to 21 Mar. 2012. The cotton used for the trial was at the early squaring stage, when it was attractive to green mirids (Khan et al. 2004).\nas §2, with “The” for “In both trials, the”, “were” for “was”, “Fipronil;” for “fipronil;”\nas §3\n(§11) Foliar application of each treatment was made on 28 Feb. (for both green mirids and beneficial insects) and 13 Mar. […]\n(§12) Pre-treatment counts of adult and nymph green mirids, predatory beetles, predatory bugs, predatory lacewings and spiders were made by visual inspection of whole cotton plants. Both adults and nymphs of beneficial insects were counted. Plants were assessed in randomly selected one-metre lengths of row of each treatment replicate (i.e. 6 m per treatment). […] Data are expressed as numbers of green mirid adults and nymphs counted per metre per treatment."}, "predatory beetles [3]": {"tested_on": "predatory beetles", "experiment": "Bollgard II cotton, Auscott-Togo 2012-13, Field 77 (Experiment 1): predatory beetles", "type": "in vivo, Coleoptera (Coccinellidae, Melyridae)", "conditions": "62.5 mL/ha", "method": "as §1, §2, §3, §4, §5"}, "green mirids": {"tested_on": "green mirids", "experiment": "Rate trial on conventional cotton refuge crops, Undabri 2012 (Example 12): green mirids", "type": "in vivo, Creontiades dilutus", "conditions": "adults P<0.03, nymphs P<0.001", "method": "as §6\nas §2, with “The” for “In both trials, the”, “mirids, green vegetable bugs” for “mirids”, “assessed:” for “evaluated:”, “mL/ha” for “mL/ha of”\nas §7, §8, §9"}, "predatory beetles [4]": {"tested_on": "predatory beetles", "experiment": "Rate trial on conventional cotton, Norwood 2012 (Example 10): predatory beetles", "type": "in vivo, Coleoptera (Coccinellidae, Melyridae)", "conditions": "3 and 6 Mar. 2012; fipronil 62.5 mL/ha; P<0.05", "method": "as §10\nas §2, with “The” for “In both trials, the”, “were” for “was”, “Fipronil;” for “fipronil;”\nas §3, §11, §12"}}, "data": [{"smiles": "N#Cc1nn(-c2c(Cl)cc(C(F)(F)F)cc2Cl)c(N)c1[S+]([O-])C(F)(F)F", "note": "(centres unmarked) [fipronil]", "values": [{"measurement": "No. predatory beetles per meter", "setting": "predatory beetles [1]; 3 DAT", "value": "2.67 ± 0.33", "unit": "a per meter"}, {"measurement": "No. predatory beetles per meter", "setting": "predatory beetles [1]; 7 DAT", "value": "2.33 ± 0.33", "unit": "a per meter"}, {"measurement": "No. predatory beetles per meter", "setting": "predatory beetles [1]; 14 DAT", "value": "0.67 ± 0.33", "unit": "a per meter"}, {"measurement": "No. predatory beetles per meter", "setting": "predatory beetles [1]; 21 DAT", "value": "1.67 ± 0.33", "unit": "a per meter"}, {"measurement": "No. predatory beetles per meter", "setting": "predatory beetles [1]; pre-spray counts", "value": "5.67 ± 0.67", "unit": "ab per meter"}, {"measurement": "green vegetable bugs per metre on unsprayed plots relative to treated plots", "setting": "[2]", "value": "significantly higher"}, {"measurement": "number of lacewings versus unsprayed (control) plots", "setting": "lacewings", "value": "No significant difference"}, {"measurement": "No. predatory beetles per meter", "setting": "predatory beetles [3]; 3 DAT", "value": "1.33 ± 0.33", "unit": "a per meter"}, {"measurement": "No. predatory beetles per meter", "setting": "predatory beetles [3]; 7 DAT", "value": "1.33 ± 0.33", "unit": "a per meter"}, {"measurement": "No. predatory beetles per meter", "setting": "predatory beetles [3]; 14 DAT", "value": "1.00 ± 0.58", "unit": "a per meter"}, {"measurement": "No. predatory beetles per meter", "setting": "predatory beetles [3]; 21 DAT", "value": "1.33 ± 0.33", "unit": "b per meter"}, {"measurement": "No. predatory beetles per meter", "setting": "predatory beetles [3]; pre-spray counts", "value": "3.68 ± 0.33", "unit": "a per meter"}, {"measurement": "green mirid adults and nymphs per metre versus unsprayed plots", "setting": "green mirids", "value": "Significantly fewer"}, {"measurement": "number of predatory beetles per metre versus unsprayed and DAT 511 treated plots", "setting": "predatory beetles [4]", "value": "significantly lower"}]}]}
